Source: PMC6359144 (International Journal of Molecular Sciences, 2019)
Read-outs that look alike come from different tables or passages of the source.

Columns and labels:
[1] = test system: HCT-116 colon carcinoma cells; assay: MTT assay, HCT-116 colon carcinoma cells; format: cell-based; conditions: Homo sapiens, HCT-116, read-out: IC50 HCT-116 (72 h)
Description: (§1) HT-29 (ACC-299), HCT-116 (ACC-581) and DLD-1 (ACC-278) colon carcinoma, MCF-7 (ACC-115) breast carcinoma, KB-V1 (ACC-149), 518A2 (Department of Radiotherapy and Radiobiology, University Hospital Vienna) melanoma and Ea.Hy926 (ATCC no. CRL-2922) HUVEC derived endothelial hybrid cells line were grown in Dulbecco’s Modified Eagle Medium (DMEM; Biochrom), high glucose supplemented with 10% (v/v) fetal bovine serum (FBS; Biochrom.) and 1% (v/v) Antibiotic-Antimycotic solution (anti-anti; Thermo Scientific). HDFa human dermal fibroblasts (ATCC: PCS-201-012™) were grown in DMEM supplemented with 10% FBS, 1% anti-anti and 2 mM glutamine. The cells were incubated at 37 °C, 5% CO2, 95% humidified atmosphere. By repeated addition of topotecan or vinblastine at the maximum tolerated dose to the cell medium of MCF-7 and KB-V1 cells, the cells were rendered multidrug-resistant, indicated as MCF-7^Topo and KB-V1^Vbl, respectively. They were serially passaged following trypsinization by using 0.05% trypsin/0.02% EDTA (Biochrom). Mycoplasma contamination was routinely monitored, and only mycoplasma–free cultures were used.
(§2) MTT [3-(4,5-dimethylthiazol-2-yl)-2,5-diphenyltetrazolium bromide] (ABCR) was used to determine the cytotoxicity of test compounds as previously described. Briefly, HDFa human dermal fibroblasts and Ea.Hy926 endothelial hybrid cells (both 1 × 10^5 cells/mL, 100 µL/well), 518A2 melanoma, KB-V1^Vbl cervix carcinoma, MCF-7^Topo breast carcinoma, HT-29, DLD-1 and HCT-116 colon carcinoma (all 5 × 10^4 cells/mL, 100 µL/well) were grown in 96-well culture plates for 24 h. Then, various concentrations of the test compounds were added and the cells were incubated for 24-72 h at 37 °C. After adding 12.5 µL of a 0.5% MTT solution in PBS (final concentration 0.05%) to cell medium, microplates were incubated for 2 h and subsequently swiftly turned to discard the medium. The precipitate of formazan crystals was then dissolved in a 10% solution of SDS in DMSO containing 0.6% acetic acid. To ensure complete dissolution of formazan, microplates were incubated for at least 4 h at 37 °C. Finally, the absorbance at λ = 570 nm (formazan) and 630 nm (background) was measured using a microplate reader (Tecan F200). All experiments were carried out in quadruplicate and the percentage of viable cells was calculated as the mean ± SD with controls set to 100%. Selected graphs of MTT assays can be found in the Supporting Information (Figure S8).

[2] = test system: KB-V1^Vbl cervix carcinoma cells; assay: MTT assay, KB-V1^Vbl cervix carcinoma cells; format: cell-based; conditions: Homo sapiens, read-out: IC50 KB-V1^Vbl (72 h)
Description: as §1, §2

[3] = test system: MCF-7^Topo breast adenocarcinoma cells; assay: MTT assay, MCF-7^Topo breast carcinoma cells; format: cell-based; conditions: Homo sapiens, MCF7/Topo, read-out: IC50 MCF-7^Topo (72 h)
Description: as §1, §2

[4] = test system: Ea.Hy926 endothelial hybrid cells; assay: MTT assay, Ea.Hy926 endothelial hybrid cells; format: cell-based; conditions: Homo sapiens, EA.hy 926, read-out: IC50 Ea.Hy926 (72 h)
Description: as §1, §2

518A2 melanoma cells [5] = assay: MTT assay, 518A2 melanoma cells; format: cell-based, human; conditions: for IC50 after 72 h compared with IC50 after 24 h: 518A2 melanoma cells, fold lower; for IC50: Homo sapiens, MTT, mean ± SD of four experiments; for effect on viability of 518A2 melanoma cells: concentrations as high as 50 µM
Description: as §1, §2

[6] = test system: HT-29 colon carcinoma cells; assay: MTT assay, HT-29 colon carcinoma cells; format: cell-based, human; conditions: for IC50: Homo sapiens, MTT; for effect on viability of HT-29 colon carcinoma cells: concentrations as high as 50 µM
Description: as §1, §2

[7] = test system: DLD-1 colon carcinoma cells; assay: MTT assay, DLD-1 colon carcinoma cells; format: cell-based; conditions: Homo sapiens, DLD-1, read-out: IC50 DLD-1 (72 h)
Description: as §1, §2

[8] = test system: Ea.Hy926 endothelial hybrid cells; parameters: method as in earlier work; conditions: read-out: IC50 Ea.Hy926 (72 h), MTT, and 34; cited from earlier work
[9] = test system: HCT-116 colon carcinoma cells; parameters: method as in earlier work; conditions: read-out: IC50 HCT-116 (72 h), MTT, and 34; cited from earlier work
[10] = test system: MCF-7^Topo breast adenocarcinoma cells; parameters: method as in earlier work; conditions: read-out: IC50 MCF-7^Topo (72 h), MTT, and 34; cited from earlier work
518A2 melanoma cells [11] = test system: 518A2 melanoma cells; parameters: method as in earlier work; conditions: read-out: IC50 518A2 (72 h), MTT, and 34; cited from earlier work
[12] = test system: HT-29 colon carcinoma cells; parameters: method as in earlier work; conditions: read-out: IC50 HT-29 (72 h), MTT, and 34; cited from earlier work
[13] = target: T1, purified pig brain tubulin (Sus scrofa, UniProt P02550+P02554); assay: Turbidimetric cell-free tubulin polymerization assay; format: biochemical; conditions: 10 µM, 340 nm
T1 construct: using purified pig brain tubulin; from tissue; host or cells: pig brain
T1 sequence (P02554 whole entry): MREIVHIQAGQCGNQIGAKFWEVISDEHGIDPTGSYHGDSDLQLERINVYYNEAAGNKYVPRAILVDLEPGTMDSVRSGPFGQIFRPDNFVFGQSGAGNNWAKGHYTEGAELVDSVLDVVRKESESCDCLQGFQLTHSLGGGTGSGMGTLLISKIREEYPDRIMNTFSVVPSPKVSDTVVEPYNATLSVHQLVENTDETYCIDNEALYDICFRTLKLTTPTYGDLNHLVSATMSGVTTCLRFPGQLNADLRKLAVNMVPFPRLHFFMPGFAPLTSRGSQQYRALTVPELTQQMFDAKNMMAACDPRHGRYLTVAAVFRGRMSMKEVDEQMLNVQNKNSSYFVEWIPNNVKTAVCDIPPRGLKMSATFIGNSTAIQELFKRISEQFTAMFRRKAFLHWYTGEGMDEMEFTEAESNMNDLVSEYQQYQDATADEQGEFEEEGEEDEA
T1 sequence (P02550 whole entry): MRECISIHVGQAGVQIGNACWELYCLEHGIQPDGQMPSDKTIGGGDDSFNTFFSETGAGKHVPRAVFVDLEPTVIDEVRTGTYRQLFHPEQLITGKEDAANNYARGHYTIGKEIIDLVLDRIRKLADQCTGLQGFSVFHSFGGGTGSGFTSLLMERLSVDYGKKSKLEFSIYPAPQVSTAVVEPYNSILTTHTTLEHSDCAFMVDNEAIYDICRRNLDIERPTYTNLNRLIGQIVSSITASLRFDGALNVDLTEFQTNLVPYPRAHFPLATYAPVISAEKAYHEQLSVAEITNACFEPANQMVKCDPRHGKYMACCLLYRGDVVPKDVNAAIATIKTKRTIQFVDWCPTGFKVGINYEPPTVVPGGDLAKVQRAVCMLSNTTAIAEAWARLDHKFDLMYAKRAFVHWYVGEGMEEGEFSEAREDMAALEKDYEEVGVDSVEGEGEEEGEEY
Description: An amount of 50 µL of Brinkley’s buffer 80 (BRB80) supplemented with 20% glycerol and 3 mM GTP was given in a black 96-well half-area plate with clear bottom. Then, test compounds 4d–f (final concentration: 5 µM, or 10 µM) or vehicle (DMSO) were added. After adding 50 µL tubulin in BRB80 (10 mg/mL) was pipetted in the wells and immediately placed in a pre-heated microplate reader (Tecan). The polymerization was determined turbidimetrically at 37 °C by measuring the absorption at 340 nm for 120 min in intervals of 5 min. Values were normally distributed for each group (Shapiro–Wilk test, p > 0.05) and there was homogeneity of variance (Levene’s test, p > 0.05).

[14] = 518A2, read-out: IC50 518A2 (72 h), 72 h
[15] = 518A2, 24 h, read-out: IC50 518A2 (24 h)
[16] = HT-29, read-out: IC50 HT-29 (72 h), 72 h
[17] = HT-29, 24 h, read-out: IC50 HT-29 (24 h)

Row | SMILES | melting point [°C] | IC50 [1] [µM] | IC50 [2] [µM] | IC50 [3] [µM] | IC50 [4] [µM] | IC50 after 72 h compared with IC50 after 24 h (518A2 melanoma cells [5]) | IC50 (518A2 melanoma cells [5]; [14]) [µM] | IC50 (518A2 melanoma cells [5]; [15]) [µM] | IC50 [6, 16] [µM] | IC50 [6, 17] [µM] | IC50 [7] [µM] | effect on viability of 518A2 melanoma cells (518A2 melanoma cells [5]) | effect on viability of HT-29 colon carcinoma cells [6] | IC50 [8] [µM] | IC50 [9] [µM] | IC50 [10] [µM] | IC50 (518A2 melanoma cells [11]) [µM] | IC50 [12] [µM] | inhibition of tubulin polymerization [13]
1 | COc1ccc(-c2ocnc2-c2cc(Cl)c(OC)c(OC)c2)cc1OCCCC(=O)NO [4a, N-Hydroxy-4-[1-methoxy-4-(4’-(3’’-chloro-4’’,5’’-dimethoxyphenyl)oxazol-5’-yl)-2-phenoxy]butanamide] | 171 to 172 | 0.21 ± 0.01 | 0.15 ± 0.02 | 0.66 ± 0.14 | 0.0012 ± 0.0006 | about eight-fold | 0.11 ± 0.01 | 1.3 ± 0.4 | 2.9 ± 0.3 | 2.5 ± 0.4 | 0.34 ± 0.01 |  |  |  |  |  |  |  | 
2 | COc1ccc(-c2ocnc2-c2cc(OC)c(OC)c(OC)c2)cc1OCCCC(=O)O [4j, 4-[1-Methoxy-4-(4’-(3’’,4’’,5’’-trimethoxyphenyl)oxazol-5’-yl)-2-phenoxy]butyric acid] |  |  |  |  |  |  | > 50 | > 100 | > 100 | > 100 |  | did not affect the viability | did not affect the viability |  |  |  |  |  | 
3 | COc1ccc(-c2ocnc2-c2cc(Cl)c(OC)c(OC)c2)cc1OCCCCCC(=O)NO [4c, N-Hydroxy-6-[1-methoxy-4-(4’-(3’’-chloro-4’’,5’’-dimethoxyphenyl)oxazol-5’-yl)-2-phenoxy]hexanamide] | 189 | 6.5 ± 0.3 | 18.4 ± 3.4 | 6.1 ± 0.7 | 7.5 ± 0.5 |  | 2.2 ± 0.3 | 9.4 ± 1.4 | 4.9 ± 0.3 | 4.6 ± 0.3 | 3.3 ± 0.5 |  |  |  |  |  |  |  | 
4 | COc1ccc(-c2ocnc2-c2cc(OC)c(OC)c(OC)c2)cc1OCCCC(=O)NO [4g, N-Hydroxy-4-[1-methoxy-4-(4’-(3’’,4’’,5’’-trimethoxyphenyl)oxazol-5’-yl)-2-phenoxy]butanamide] |  | 0.92 ± 0.12 | 2.7 ± 0.2 | 9.3 ± 0.8 | 0.41 ± 0.04 | about eight-fold | 0.64 ± 0.07 | 4.4 ± 0.1 | 2.8 ± 0.2 | 5 ± 0.2 | 0.92 ± 0.04 |  |  |  |  |  |  |  | 
5 | COc1ccc(/C=C\c2cc(OC)c(OC)c(OC)c2)cc1O [CA-4, Combretastatin A-4] |  |  |  |  |  |  |  |  |  |  |  |  |  | 0.011 ± 0.002 | 0.0026 ± 0.0002 | 0.5 ± 0.2 | 0.018 ± 0.007 | 3.6 ± 0.1 | significant inhibition of tubulin polymerization
6 | COc1ccc(-c2ocnc2-c2cc(OC)c(OC)c(OC)c2)cc1OCCCCCC(=O)NO [4i, N-Hydroxy-6-[1-methoxy-4-(4’-(3’’,4’’,5’’-trimethoxyphenyl)oxazol-5’-yl)-2-phenoxy]hexanamide] |  | 0.61 ± 0.07 | 9 ± 0.3 | 15.8 ± 1.4 | 1.7 ± 0.1 |  | 3.3 ± 0.3 | 6.9 ± 2.5 | 1.7 ± 0.1 | 47.6 ± 10.6 | 1.3 ± 0.1 |  |  |  |  |  |  |  | 
7 | COc1ccc(-c2ocnc2-c2cc(OC)c(OC)c(OC)c2)cc1OCCCCC(=O)NO [4h, N-Hydroxy-5-[1-methoxy-4-(4’-(3’’,4’’,5’’-trimethoxyphenyl)oxazol-5’-yl)-2-phenoxy]pentanamide] | 118 to 120 | 3.4 ± 0.4 | 11.1 ± 1.6 | 39.6 ± 5.9 | 3.4 ± 0.2 |  | 5.6 ± 0.6 | 21.6 ± 3.9 | 6.6 ± 0.6 | 53.9 ± 12 | 5.8 ± 0.4 |  |  |  |  |  |  |  | 
8 | CCOC(=O)CCCOc1cc(-c2ocnc2-c2cc(OC)c(OC)c(OC)c2)ccc1OC [3g, Ethyl 4-[1-methoxy-4-(4’-(3’’,4’’,5’’-trimethoxyphenyl)oxazol-5’-yl)-2-phenoxy]butyrate] |  |  |  |  |  |  | > 50 | > 100 | > 50 | > 100 |  | did not affect the viability | did not affect the viability |  |  |  |  |  | 
9 | COc1ccc(-c2ocnc2-c2cc(Cl)c(OC)c(OC)c2)cc1OCCCCC(=O)NO [4b, N-Hydroxy-5-[1-methoxy-4-(4’-(3’’-chloro-4’’,5’’-dimethoxyphenyl)oxazol-5’-yl)-2-phenoxy]pentanamide] | 202 | 2.4 ± 0.1 | 4 ± 0.2 | 2.9 ± 0.8 | 0.57 ± 0.07 |  | 1 ± 0.1 | 10.4 ± 5.1 | 3.6 ± 0.1 | 4.2 ± 0.2 | 3.2 ± 0.1 |  |  |  |  |  |  |  | 
